Laboratory results from PubChem BioAssay AID2202554 (NIEHS Division of Translational Toxicology (DTT)).
Inconclusive results are not listed. Activity calls are given as the source filed them. How the calls were made is not given here.

Tested on: S. typhimurium/E. coli reverse mutation, colony counts
Assay: Bacterial reverse mutation test (aka Ames test) summary data
Procedure, shortened: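 S. typhimurium his⁻ strains (TA97–TA1538) and E. coli WP2 uvrA pKM101 trp⁻, dosed over a range with or without rat, hamster or mouse liver S9. Preincubated 20 min at 37° C (or plate incorporation), plated in agar, incubated usually two days. Revertant colonies counted against negative controls.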

SMILES	outcome
C=CCc1ccc(OC)cc1	inactive; negative
CC1(C)CC(N=C=O)CC(C)(CN=C=O)C1 (stereo not drawn)	inactive; negative
CCOC(=O)c1ccccc1C(=O)OCC	inactive; negative
OC(c1ccc(Cl)cc1)(c1ccc(Cl)cc1)c1ccc(Cl)cc1	inactive; negative
COc1ccc([N+](=O)[O-])cc1N	active; positive
CSC(C)(C)C=NO	inactive; negative
CC(O)CBr (stereo not drawn)	active; positive
Cc1ccncc1	inactive; negative
CCOC(N)=O	active; positive
CCOP(=S)(OCC)Oc1nc(Cl)c(Cl)cc1Cl	inactive; negative
O=C(O)C(F)(F)C(F)(F)C(F)(F)C(F)(F)C(F)(F)C(F)(F)C(F)(F)C(F)(F)C(F)(F)F	inactive; negative
CC1CCCO1 (stereo not drawn)	inactive; negative
Cc1cccc2cccnc12	active; positive
Nc1cc(Cl)c([N+](=O)[O-])cc1O	active; positive
ClCCl	active; positive
COC(=O)c1ccccc1C(=O)OC	inactive; negative
NCC(=O)O	inactive; negative
CC1=CC(=O)CC(C)(C)[C@@]1(O)/C=C/C(C)=C\C(=O)O	inactive; negative
C=C(Cl)Cl	inactive; negative
CCCCC(CC)COS(=O)(=O)O (stereo not drawn)	inactive; negative
ClC(Cl)C(Cl)Cl	inactive; negative
N#CCCCl	active; positive
Cc1cccc(C)c1O	inactive; negative
C1COCOC1	active; weakly positive
CCCCOCCOP(=O)(OCCOCCCC)OCCOCCCC	inactive; negative

SMILES	outcome
N#CCCCCC#N	inactive; negative
Cc1cc(-c2ccc(N=Nc3ccc4c(S(=O)(=O)O)cc(S(=O)(=O)O)c(N)c4c3O)c(C)c2)ccc1N=Nc1ccc2c(S(=O)(=O)O)cc(S(=O)(=O)O)c(N)c2c1O	active; positive
O=C1OC(=O)c2ccccc21	inactive; negative
CC(=O)OCc1ccc2c(c1)OCO2	inactive; negative
Nc1nccs1	active; positive
Nc1cccc(Cl)c1	inactive; negative
O=C(O)C(Cl)(Br)Br	active; positive
O=C1c2c(O)ccc([N+](=O)[O-])c2C(=O)c2c([N+](=O)[O-])ccc(O)c21	active; positive
Cc1cc(O)c2c(c1)C(=O)c1cccc(O)c1C2=O	active; weakly positive
Nc1ccc(C(=O)O)cc1	inactive; negative
O=C1N(CO)C(O)C(O)N1CO (stereo not drawn)	active; positive
CCN(C=O)CC	inactive; negative
CCC[CH2][Sn]([CH2]CCC)([O]C(C)=O)[O]C(C)=O	inactive; negative
Clc1ccc(C(Cl)(Cl)Cl)c(Cl)c1	active; positive
Clc1ccc(C(Cl)(Cl)Cl)cc1Cl	active; positive
O=C(O)C1=NN(c2ccc(S(=O)(=O)O)cc2)C(=O)C1N=Nc1ccc(S(=O)(=O)[O-])cc1.O=C(O)C1=NN(c2ccc(S(=O)(=O)O)cc2)C(=O)C1N=Nc1ccc(S(=O)(=O)[O-])cc1.O=C(O)C1=NN(c2ccc(S(=O)(=O)O)cc2)C(=O)C1N=Nc1ccc(S(=O)(=O)[O-])cc1.[Al+3] (stereo not drawn)	inactive; negative
C[C@@H]1[C@H](O)[C@@H](C)/C=C/C=C/C=C/C=C/C=C/C=C/C=C/[C@H](O[C@@H]2O[C@H](C)[C@@H](O)[C@H](N)[C@@H]2O)C[C@@H]2O[C@](O)(C[C@@H](O)C[C@@H](O)[C@H](O)CC[C@@H](O)C[C@@H](O)CC(=O)O[C@H]1C)C[C@H](O)[C@H]2C(=O)O	inactive; negative
NC1(C(=O)O)CCCC1	inactive; negative
Brc1ccc(Oc2ccc(Br)cc2Br)c(Br)c1	inactive; negative
CCCN(CCC)S(=O)(=O)c1ccc(C(=O)O)cc1	inactive; negative
Cc1cc2nc3c(=O)[nH]c(=O)nc-3n(C[C@H](O)[C@H](O)[C@H](O)CO)c2cc1C	inactive; negative
COc1cc(S(=O)(=O)O)c(C)cc1N=Nc1c(O)ccc2cc(S(=O)(=O)O)ccc12	inactive; negative
O=[N+]([O-])c1ccc(Cl)cc1	active; positive
O=[N+]([O-])c1cccc2cccc([N+](=O)[O-])c12	active; positive
NC(=O)c1ccccc1	inactive; negative

SMILES	outcome
c1ccc2c(c1)oc1ccccc12	inactive; negative
Nc1ccc(Cc2ccc(N)c(Cc3ccc(N)cc3)c2)cc1	active; positive
OCC1CCC(CO)CC1 (stereo not drawn)	inactive; negative
O=C(O)C(Br)(Br)Br	active; positive
C=CC(=O)NC(C)(C)CC(C)=O	inactive; negative
Nc1ccccn1	inactive; negative
ClCCOCCCl	active; weakly positive
Nc1ccn([C@@H]2CS[C@H](CO)O2)c(=O)n1	inactive; negative
O=[N+]([O-])c1ccc(Cl)c(Cl)c1	active; positive
CCOP(=S)(OCC)Oc1cc(C)nc(C(C)C)n1	inactive; negative
O=C(O)CSCC(=O)O	inactive; negative
C1COC1	active; positive
Nc1cccc(O)c1	active; positive
ClC=CCCl	active; positive
NNC(N)=O	inactive; negative
CC(=O)Nc1ccc(C)cc1	active; weakly positive
ClC(Br)Br	active; weakly positive
COc1cc2c(c(OC)c1OC)-c1ccc(OC)c(=O)cc1[C@@H](NC(C)=O)CC2	inactive; negative
CCCCOCCO	inactive; negative
CN(C)CCN(Cc1ccccc1)c1ccccc1	inactive; negative
C[N+](C)=c1ccc2nc3ccc(N)cc3sc-2c1	active; positive
CC(=O)C=Cc1ccco1	inactive; negative
CCCCOC(=O)COc1ccc(Cl)cc1Cl	inactive; negative
C	inactive; negative
CN1CCCC1=O	inactive; negative

SMILES	outcome
[Na+]	inactive; negative
O=C1c2c(O)cccc2Cc2cccc(O)c21	inactive; negative
CCN(CC)c1ccc([N+](=O)[O-])cc1	active; positive
CCNNCC	inactive; negative
Cc1ccnc2c1NC(=O)c1cccnc1N2C1CC1	inactive; negative
O=P(OC(CCl)CCl)(OC(CCl)CCl)OC(CCl)CCl	active; positive
O=Cc1ccc(Cl)c(Cl)c1	inactive; negative
C=Cc1ccccn1	active; positive
Cc1ccc(Cl)cc1	inactive; negative
[O]=[V]([OH])([OH])[OH]	inactive; negative
O=C1OC(c2ccc(O)cc2)(c2ccc(OC3O[C@H](C(=O)O)[C@@H](O)[C@H](O)[C@H]3O)cc2)c2ccccc21 (stereo partly drawn)	inactive; negative
CC(C)=O	inactive; negative
CCCCC(CC)COC(=O)c1ccc(N(C)C)cc1 (stereo not drawn)	inactive; negative
C=CCOC(=O)c1ccccc1C(=O)OCC=C	inactive; negative
CC(O)CNCC(C)O (stereo not drawn)	inactive; negative
C=CC(=O)OCC	active; weakly positive
N#CC(Cl)Cl	active; positive
CCCCCCCCCC(=O)O	inactive; negative
CC/C=C\C/C=C\C/C=C\CCCCCCCC(=O)O	active; weakly positive
Cc1ccc(CO)cc1	inactive; negative
FC(F)(F)c1ccccc1Cl	inactive; negative
C[N+](C)(C)CCO	inactive; negative
Cc1cc(-c2ccc(N=Nc3c(S(=O)(=O)O)cc4cc(S(=O)(=O)O)cc(N)c4c3O)c(C)c2)ccc1N=Nc1c(S(=O)(=O)O)cc2cc(S(=O)(=O)O)cc(N)c2c1O	active; positive
CCN(C(=O)N(CC)c1ccccc1)c1ccccc1	inactive; negative
O=[N+]([O-])c1cc(Cl)c(Cl)cc1Cl	active; positive

SMILES	outcome
CCC(C)C	inactive; negative
COc1cc(-c2ccc(N=Nc3ccc4c(S(=O)(=O)O)cc(S(=O)(=O)O)c(N)c4c3O)c(OC)c2)ccc1N=Nc1ccc2c(S(=O)(=O)O)cc(S(=O)(=O)O)c(N)c2c1O	active; positive
O=[N+]([O-])c1cccc(Cl)c1Cl	active; weakly positive
O=C(O)CN(CCN(CC(=O)O)CC(=O)O)CC(=O)O	inactive; negative
Nc1ccc(O)c([N+](=O)[O-])c1	active; positive
S=C1NC=NC2N=CNC12 (stereo not drawn)	active; positive
OCC=CCO	active; positive
O=S(=O)(O)c1ccc(N=Nc2c(O)ccc3cc(S(=O)(=O)O)ccc23)cc1	inactive; negative
O=C(NCO)NCO	active; positive
Nc1cccc(N)c1	active; positive
Clc1cc(Cl)c(Cl)c(Cl)c1	inactive; negative
COc1ccc(C(=O)Nc2ccccc2)cc1[N+](=O)[O-]	active; positive
CCCCCNCCCCC	inactive; negative
CC(N)CN (stereo not drawn)	inactive; negative
Cc1cc(O)ccc1Cl	inactive; negative
O=C(O)C=Cc1ccc(O)c(O)c1	inactive; negative
CC(C)(Cl)Cl	inactive; negative
O.O.O.O.O.O.O=[N+]([O-])[O-].O=[N+]([O-])[O-].O=[N+]([O-])[O-].[La+3]	inactive; negative
COCC1CCC(CO)CC1 (stereo not drawn)	inactive; negative
C=CC(C)(O)CCC=C(C)C (stereo not drawn)	inactive; negative
COC(=O)C1CCC(C)CC1 (stereo not drawn)	inactive; negative
O=[N+]([O-])c1cc(Cl)c(Cl)c(Cl)c1Cl	inactive; negative
CN(C)c1ccc(N=Nc2ccccc2)cc1	active; positive
